This note sets out measurements from article PMC12057046, “Elucidation of short linear motif-based interactions of the MIT and rhodanese domains of the ubiquitin-specific protease 8” (Biology Direct, 2025).

The target of the first assay is T1, USP8 Rhod domain (Homo sapiens, UniProt P40818).
T1 construct: USP8 Rhod (174–317) (UniProt: P40818); GST (cleaved yes); made in house; host or cells: Escherichia coli BL21-Gold (DE3)
T1 sequence (P40818 174-317): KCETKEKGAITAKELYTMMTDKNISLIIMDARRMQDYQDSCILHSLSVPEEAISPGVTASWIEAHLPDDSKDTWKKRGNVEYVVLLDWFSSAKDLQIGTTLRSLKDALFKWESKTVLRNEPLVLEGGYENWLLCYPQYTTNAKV
As to the kind of experiment: Peptide-phage display-based deep mutational scanning (DMS), USP8 Rhod domain. Format: binding. The settings on record: PSSM, library USP8_DMS, days 2,3; position 7.
For the substance “KIAA1614_Q5VZ46_569_584 G7A (MERVLGALSSPLRLLP; UniProt Q5VZ46 569-584, looked up, variant G7A)”, the “enrichment_relative_to_wt at position 7 (wt G)” value is 1.68 and the “proportion of amino acid at position 7 (wt G)” value (from here on “proportion … (wt G)”) stood at 0.0259. The like results for “KIAA1614_Q5VZ46_569_584 G7D (MERVLGDLSSPLRLLP; peptide 569-584; UniProt Q5VZ46 569-584, looked up, variant G7D)” were, in that order, 17 and 0.26.

For the substance “KIAA1614_Q5VZ46_569_584 G7E (MERVLGELSSPLRLLP; UniProt Q5VZ46 569-584, looked up, variant G7E)”, the “enrichment_relative_to_wt at position 7 (wt G)” value was 1.36 and the “proportion … (wt G)” value was determined as 0.02. As for “KIAA1614_Q5VZ46_569_584 G7F (MERVLGFLSSPLRLLP; UniProt Q5VZ46 569-584, looked up, variant G7F)”, the “enrichment_relative_to_wt at position 7 (wt G)” value is on record as 3 and the “proportion … (wt G)” value amounted to 0.0448.

With “KIAA1614_Q5VZ46_569_584 G7H (MERVLGHLSSPLRLLP; UniProt Q5VZ46 569-584, looked up, variant G7H)”, the “enrichment_relative_to_wt at position 7 (wt G)” value is listed as -7.58 and the “proportion … (wt G)” value stood at 0.00204. With “KIAA1614_Q5VZ46_569_584 G7I (MERVLGILSSPLRLLP; peptide 569-584; UniProt Q5VZ46 569-584, looked up, variant G7I)”, the “enrichment_relative_to_wt at position 7 (wt G)” value is listed as -2.84 and the “proportion … (wt G)” value was determined as 0.00545. Turning to “KIAA1614_Q5VZ46_569_584 G7K (MERVLGKLSSPLRLLP; peptide 569-584; UniProt Q5VZ46 569-584, looked up, variant G7K)”, the “enrichment_relative_to_wt at position 7 (wt G)” value was -96 and the “proportion … (wt G)” value came to 0.000161. The like results for “KIAA1614_Q5VZ46_569_584 G7L (MERVLGLLSSPLRLLP; UniProt Q5VZ46 569-584, looked up, variant G575L)” were, in that order, -3 and 0.00507. “KIAA1614_Q5VZ46_569_584 G7Q (MERVLGQLSSPLRLLP; UniProt Q5VZ46 569-584, looked up, variant G7Q)”: the “enrichment_relative_to_wt at position 7 (wt G)” value turned out to be 1.89 and the “proportion … (wt G)” value came out at 0.03. The like results for “KIAA1614_Q5VZ46_569_584 G7R (MERVLGRLSSPLRLLP; UniProt Q5VZ46 569-584, looked up, variant G7R)” were, in that order, -19 and 0.000822.

For the substance “KIAA1614_Q5VZ46_569_584 G7S (MERVLGSLSSPLRLLP; UniProt Q5VZ46 569-584, looked up, variant G7S)”, the “enrichment_relative_to_wt at position 7 (wt G)” value is -1.8 and the “proportion … (wt G)” value amounted to 0.0086. Take “KIAA1614_Q5VZ46_569_584 G7T (MERVLGTLSSPLRLLP; peptide 569-584; UniProt Q5VZ46 569-584, looked up, variant G7T)”: the “enrichment_relative_to_wt at position 7 (wt G)” value worked out at 30 and the “proportion … (wt G)” value is given as 0.46. Consider “KIAA1614_Q5VZ46_569_584 G7W (MERVLGWLSSPLRLLP; UniProt Q5VZ46 569-584, looked up, variant G7W)”, for which the “enrichment_relative_to_wt at position 7 (wt G)” value is given as -172 and the “proportion … (wt G)” value was 8.98e-5.

Turning to “KIAA1614_Q5VZ46_569_584 G7Y (MERVLGYLSSPLRLLP; peptide 569-584; UniProt Q5VZ46 569-584, looked up, variant G7Y)”, the “enrichment_relative_to_wt at position 7 (wt G)” value is -2 and the “proportion … (wt G)” value is 0.00809.

Staying with this assay, now noted: PSSM, library USP8_DMS, days 2,3; position 10.
Turning to “KIAA1614_Q5VZ46_569_584 S10E (MERVLGGLSEPLRLLP; UniProt Q5VZ46 569-584, looked up, variant S10E)”, the “enrichment_relative_to_wt at position 10 (wt S)” value is -77 and the “proportion of amino acid at position 10 (wt S)” value worked out at 0.00734.

The assay is the same for the next values; noted with them: PSSM, library USP8_DMS, days 2,3; position 15.
For “KIAA1614_Q5VZ46_569_584 L15A (MERVLGGLSSPLRLAP; UniProt Q5VZ46 569-584, looked up, variant L15A)”, the “enrichment_relative_to_wt at position 15 (wt L)” value is given as -207 and the “proportion of amino acid at position 15 (wt L)” value (“proportion … (wt L)” below) is 0.00469. For “KIAA1614_Q5VZ46_569_584 L15I (MERVLGGLSSPLRLIP; UniProt Q5VZ46 569-584, looked up, variant L15I)” the same measures were -277 and 0.00349.

Take “KIAA1614_Q5VZ46_569_584 L15N (MERVLGGLSSPLRLNP; peptide 569-584; UniProt Q5VZ46 569-584, looked up, variant L15N)”: the “enrichment_relative_to_wt at position 15 (wt L)” value was -89 and the “proportion … (wt L)” value is recorded as 0.0109. As for “KIAA1614_Q5VZ46_569_584 L15V (MERVLGGLSSPLRLVP; UniProt Q5VZ46 569-584, looked up, variant L15V)”, the “enrichment_relative_to_wt at position 15 (wt L)” value was -151 and the “proportion … (wt L)” value is 0.00642.

Staying with this assay, now noted: ProP-PD DMS, bait USP8_Rhodanese__P40818_174_317; pair wild-type GMERVLGGLSSPLRLL (wt_00013) vs mutant; positive where wild-type fraction is higher, negative where mutant fraction is higher.
GMERVLGGWSSPLRLL yielded a hit_pair_ratio of 10.09. As for GMERVLGGYSSPLRLL, the hit_pair_ratio turned out to be 32.92.

Still in this assay, the particulars now being: ProP-PD pairs, bait USP8_Rhodanese__P40818_174_317; wild-type/mutant pair, wild type KIAA1614 569-584 GMERVLGGLSSPLRLL (wt_00013).
GMERVLGNLSSPLRLL gave a hit_pair_ratio of 160.99. On the same count and under the same terms, to GMERVLGTLSSPLRLL belongs 321.97; to GMERVLGVLSSPLRLL, 14.78.

Substance GMERVLHGLSSPLRLL showed a hit_pair_ratio of 6.31. GMERVLIGLSSPLRLL registered a hit_pair_ratio of 3.89. The substance GMERVLKGLSSPLRLL displayed a hit_pair_ratio of 131.67. Regarding GMERVLLGLSSPLRLL, the hit_pair_ratio is listed as 3.42. As for GMERVLMGLSSPLRLL, the hit_pair_ratio is -3.47.

As for GMERVLNGLSSPLRLL, the hit_pair_ratio is given as -1.21. Still for that read-out and setting: with GMERVLPGLSSPLRLL the figure was 131.67; with GMERVLQGLSSPLRLL, -3.38. GMERVLRGLSSPLRLL: the hit_pair_ratio is recorded as 18.46. Turning to GMERVLSGLSSPLRLL, the hit_pair_ratio was determined as 2.55. For the substance GMERVLTGLSSPLRLL, the hit_pair_ratio is -43.42. For GMERVLVGLSSPLRLL, the hit_pair_ratio is on record as -3.34. As for GMERVLWGLSSPLRLL, the hit_pair_ratio is recorded as 321.97.

GMERVLYGLSSPLRLL yielded a hit_pair_ratio of 2.20.

GMERVNGGLSSPLRLL registered a hit_pair_ratio of 321.97. The substance GMERVPGGLSSPLRLL displayed a hit_pair_ratio of 12.38. Still for that read-out and setting: with GMERVQGGLSSPLRLL the figure was 107.32; with GMERVSGGLSSPLRLL, 321.97; with GMERVTGGLSSPLRLL, 40.25. Still for that read-out and setting: to GMERVVGGLSSPLRLL belongs 321.97. With GMERWLGGLSSPLRLL, the hit_pair_ratio was -5.43. In the case of GMERYLGGLSSPLRLL, the hit_pair_ratio was -2.09. As to GMETVLGGLSSPLRLL, the hit_pair_ratio is recorded as 321.97. The substance GMEWVLGGLSSPLRLL came in with a hit_pair_ratio of 40.25. GMFRVLGGLSSPLRLL returned a hit_pair_ratio of 321.97. GMHRVLGGLSSPLRLL yielded a hit_pair_ratio of 16.95. GMLRVLGGLSSPLRLL registered a hit_pair_ratio of 32.20. With GMNRVLGGLSSPLRLL, the hit_pair_ratio is given as 2.27. As to GMPRVLGGLSSPLRLL, the hit_pair_ratio is recorded as 21.46.

GMQRVLGGLSSPLRLL registered a hit_pair_ratio of 1.88.

Substance GMSRVLGGLSSPLRLL came in with a hit_pair_ratio of 9.14. With GMTRVLGGLSSPLRLL, the hit_pair_ratio is on record as 23.00. For the substance GMVRVLGGLSSPLRLL, the hit_pair_ratio is 160.99.

For GMWRVLGGLSSPLRLL, the hit_pair_ratio amounted to 15.33. In turn, GMYRVLGGLSSPLRLL yielded a hit_pair_ratio of 17.24. With GNERVLGGLSSPLRLL, the hit_pair_ratio was -3.41.

On to GPERVLGGLSSPLRLL, for which the hit_pair_ratio is given as -9.75. Turning to GQERVLGGLSSPLRLL, the hit_pair_ratio is recorded as -1.16. In turn, GRERVLGGLSSPLRLL yielded a hit_pair_ratio of 1.40. As to GSERVLGGLSSPLRLL, the hit_pair_ratio was -3.84.

For the substance GTERVLGGLSSPLRLL, the hit_pair_ratio is -5.86. In the case of GVERVLGGLSSPLRLL, the hit_pair_ratio is listed as -8.18. For the substance GWERVLGGLSSPLRLL, the hit_pair_ratio came out at 3.37. Still for that read-out and setting: to GYERVLGGLSSPLRLL belongs 1.08; to IMERVLGGLSSPLRLL, 24.34.

The same assay, now with this note: bait USP8_Rhodanese__P40818_174_317; wild-type/mutant pair ratio of averaged fractions; negative values where mutant fraction is higher.
With HMERVLGGLSSPLRLL, the hit_pair_ratio is listed as -2.43.

The same assay, now with this note: wild type/mutant pair; bait USP8_Rhodanese__P40818_174_317; vs hit_library_peptide_wt GLALWEAKMKQLAERA; negative where mutant fraction exceeds wild type; ProP-PD pairs (sheet S7.B).
Substance GPALWEAKMKQLAERA displayed a hit_pair_ratio of 1107.01. In turn, GRALWEAKMKQLAERA gave a hit_pair_ratio of 1107.01. As to GSALWEAKMKQLAERA, the hit_pair_ratio was 417.62.

Regarding GTALWEAKMKQLAERA, the hit_pair_ratio amounted to 1107.01.

For GVALWEAKMKQLAERA, the hit_pair_ratio was -1.59. On the same count and under the same terms, with GWALWEAKMKQLAERA the figure was 11.95; with GYALWEAKMKQLAERA, 276.75.
